Results published in PMC4884984, “Identification of approved and investigational drugs that inhibit hypoxia-inducible factor-1 signaling” (Oncotarget, 2016).
Where two headings read alike, the source gives them in different places.

Experiments:
[1] = tested on: hypoxia response element-beta-lactamase (HRE–bla); experiment: HRE-bla reporter gene assay in ME-180 cells; assay type: cell-based, human
Protocol: (§1) Cell culture of HRE–bla ME-180 cells (Cat. No. K1644, Life Technologies) and HRE–bla assay were conducted according to a reported protocol [6]. […] The fluorescence signals (460/25 nm and 530/20 nm) of CCF4 and luminescence signals of CellTiter-Glo were acquired on an Envision and a ViewLux plate readers (Perkin Elmer), respectively.

[2] = tested on: HIF-1α–NanoLuc HCT116 cells; experiment: Viability (Luc): CellTiter-Glo counter screen in HIF-1α–NanoLuc cells; assay type: cell-based, human; conditions: for Viability (Luc) confirmatory IC50: Table S7, 1% O2, 18 h; for IC50: 1% O2, 18 h
[3] = tested on: HIF-1α–NanoLuc; experiment: HIF-1α–NanoLuc reporter gene assay (qHTS primary and confirmatory screens); assay type: cell-based, human
[4] = tested on: HRE–bla ME-180 cells; experiment: Viability (BLA): CellTiter-Glo counter screen in HRE–bla cells; assay type: cell-based, human; conditions: for Viability (BLA) confirmatory IC50: Table S7, 1% O2, 18 h; for IC50 / Emax: Table S7, confirmatory screen; for IC50: 1% O2, 18 h; for Emax: read-out: Viability (BLA) confirmatory Efficacy
Protocol: as §1

[5] = tested on: ME-180 cells; experiment: Cancer cell proliferation assay, ME-180; assay type: cell-based; conditions: Homo sapiens; for Emax: read-out: ME-180 3-Day Viability Efficacy
Protocol: (§2) HCT116 and ME-180 cells (ATCC) were cultured according to manufacturer's instructions. […] Cell proliferation was quantified as relative luminescence unit (RLU) values using CellTiter-Glo viability assay reagent on a ViewLux plate reader (Perkin Elmer).

[6] = tested on: HCT116 cells; experiment: Cancer cell proliferation assay, HCT116; assay type: cell-based, human; conditions: for Emax / IC50: Homo sapiens; for Emax: read-out: HCT116 3-Day Viability Efficacy
Protocol: as §2

[7] = Homo sapiens, ME-180, Table S7, confirmatory screen, read-out: HRE–bla confirmatory Efficacy
[8] = Homo sapiens, ME-180, Table S7, confirmatory screen, read-out: HRE–bla confirmatory IC50
[9] = Homo sapiens, Table S2, validation, read-out: Pathway inhibitors (validation) HIF-1α–NanoLuc Activity Efficacy
[10] = Homo sapiens, Table S2, validation, read-out: Pathway inhibitors (validation) HIF-1α–NanoLuc Activity IC50
[11] = Homo sapiens, Table S7, confirmatory screen, read-out: HIF-1α–NanoLuc confirmatory Efficacy
[12] = ME-180, 72 h, Table S8, 3 days, read-out: ME-180 3-Day Viability IC50
[13] = Homo sapiens, 18 h, read-out: IC50 (primary screen, HIF-1α–NanoLuc assay)
[14] = Homo sapiens, read-out: Efficacy (primary screen, HIF-1α–NanoLuc assay)
[15] = Homo sapiens, read-out: HIF-1α–NanoLuc confirmatory Efficacy
[16] = Homo sapiens, read-out: HIF-1α–NanoLuc confirmatory IC50
[17] = Homo sapiens, read-out: HIF-1α–NanoLuc primary Efficacy
[18] = HCT-116, 72 h, Table S8, 3 days
[19] = HCT-116, 72 h, Table S8, 3 days, read-out: HCT116 3-Day Viability IC50
[20] = Homo sapiens, Table S2, primary screen, read-out: Pathway inhibitors (primary screen) HIF-1α–NanoLuc Activity Efficacy
[21] = Homo sapiens, Table S2, primary screen, read-out: Pathway inhibitors (primary screen) HIF-1α–NanoLuc Activity IC50
[22] = Homo sapiens, Table S7, confirmatory screen, read-out: HIF-1α–NanoLuc confirmatory IC50
[23] = Homo sapiens, Table S7, primary screen, read-out: HIF-1α–NanoLuc primary Efficacy
[24] = Homo sapiens, HCT-116, Table S7, confirmatory screen
[25] = Homo sapiens, Table S7, primary screen, read-out: HIF-1α–NanoLuc primary IC50

Structure (SMILES)	Emax [1, 7]	IC50 [1, 8]	Viability (Luc) confirmatory IC50 [2]	Emax [3, 9]	IC50 [3, 10]	Emax [3, 11]	Viability (BLA) confirmatory IC50 [4]	Emax ([5]; ME-180, 72 h, Table S8, 3 days)	IC50 [5, 12]	IC50 ([4]; Homo sapiens, ME-180)	Emax [3, 23]	also measured
O=c1cc(N2CCOCC2)oc2c(-c3ccccc3)cccc12 [LY-294002]	35 ± 8%	12 ± 2.25 µM	Inactive	50 ± 9%	14.6 ± 3.54 µM	50 ± 9%	Inactive	73 ± 4%	15.4 ± 1.04 µM	–	–	HCT116 3-Day Viability IC50 ([6]; Table S8, 3 days): Inactive
C[C@H]1O[C@@H](O[C@H]2[C@@H](O)C[C@H](O[C@H]3[C@@H](O)C[C@H](O[C@H]4CC[C@@]5(C)[C@H](CC[C@@H]6[C@@H]5CC[C@]5(C)[C@@H](C7=CC(=O)OC7)CC[C@]65O)C4)O[C@@H]3C)O[C@@H]2C)C[C@H](O)[C@@H]1O [Digitoxin]	97%	0.03 ± 0.01 µM	Inactive	–	–	–	–	101 ± 4%	0.09 ± 0.02 µM	0.09 ± 0.03 µM	–	IC50 [3, 13]: 0.03 µM; Emax [3, 14]: 124%; Emax [3, 15]: 101 ± 1%; IC50 [3, 16]: 0.11 ± 0.01 µM; Emax [3, 17]: 124%; Emax [6, 18]: 97 ± 8%; IC50 [6, 19]: 2.29 ± 3.13 µM
C=CC(=O)Nc1cc2c(Nc3ccc(F)c(Cl)c3)ncnc2cc1OCCCN1CCOCC1 [Canertinib]	37 ± 22%	4.67 ± 7.5 µM	Inactive	88 ± 20%	24.8 ± 10.7 µM	88 ± 20%	–	–	–	21.2 ± 2.44 µM	50%	Emax [3, 20]: 50%; IC50 [3, 21]: 2.37 µM; IC50 [3, 22]: 28.8 ± 10.7 µM
CCN(CC)CCNC(=O)c1c(C)[nH]c(/C=C2\C(=O)Nc3ccc(F)cc32)c1C [Sunitinib]	81 ± 32%	–	–	80 ± 15%	–	80 ± 15%	–	–	–	16 ± 8.13 µM	60%	Emax ([1]; Homo sapiens, ME-180, Table 1, percentage of inhibition compared to DMSO controls, read-out: HRE-bla Efficacy (converted)): 81%; IC50 ([1]; Homo sapiens, Table 1, ME-180 cells, 1% O2, 18 h, read-out: HRE-bla IC50): 17 ± 3.17 µM; IC50 [2, 24]: 26.4 ± 9.41 µM; Emax ([2]; Homo sapiens, HCT-116, Table S7, confirmatory screen, read-out: Viability (Luc) confirmatory Efficacy): 26 ± 7%; IC50 ([3]; Homo sapiens, HCT-116, Table 1, HCT116 reporter cells, hypoxia 1% O2, 18 h, confirmatory, read-out: HIF-1α-NanoLuc IC50): 11.3 ± 3.71 µM; Emax ([3]; Homo sapiens, Table 1, percentage of inhibition compared to DMSO controls, read-out: HIF-1α-NanoLuc Efficacy (converted)): 80%; Emax [3, 20]: 60%; IC50 [3, 21]: 1.68 µM; Emax ([4]; Homo sapiens, ME-180): 60 ± 38%; IC50 ([5]; ME-180, Table 1, 72 h, read-out: 72-hr Viability ME-180 IC50): 19 ± 4.34 µM; IC50 ([6]; HCT-116, Table 1, 72 h, read-out: 72-hr Viability HCT116 IC50): 37.2 µM; HCT116 3-Day Viability IC50 ([6]; Table S8, 3 days): Inactive
CNC(=O)c1cc(Oc2ccc(NC(=O)Nc3ccc(Cl)c(C(F)(F)F)c3)cc2)ccn1 [Sorafenib]	98 ± 7%	17.6 ± 8.6 µM	Inactive	100 ± 6%	23.6 ± 2.71 µM	100 ± 6%	Inactive	–	–	–	156%	IC50 ([3]; Homo sapiens, Table S1, primary screen, hypoxia 1% O2, 18 h, read-out: IC50 (primary screen, HIF-1α–NanoLuc assay)): 13.3 µM; Emax ([3]; Homo sapiens, Table S1, primary screen, read-out: Efficacy (primary screen, HIF-1α–NanoLuc assay)): 156%; Emax [3, 20]: 46%; IC50 [3, 21]: 1.5 µM
O=C(Nc1ccc(Cl)cc1)Nc1ccc(Cl)c(C(F)(F)F)c1 [Cloflucarban]	98 ± 1%	6.8 ± 1.55 µM	Inactive	–	–	98 ± 4%	–	–	–	22.9 ± 3.16 µM	66%	IC50 [3, 22]: 14.3 ± 0.93 µM; IC50 [3, 25]: 7.5 µM
c1ccc(CCNc2nc(-c3ccccc3)cs2)cc1 [Fanetizole]	–	–	Inactive	–	–	28 ± 5%	Inactive	–	–	–	123%	HRE–bla confirmatory IC50 ([1]; Table S7, confirmatory screen): Inactive; IC50 [3, 22]: 16.4 ± 3.97 µM; IC50 [3, 25]: 26.6 µM
O=C(NOCC1CC1)c1ccc(F)c(F)c1Nc1ccc(I)cc1Cl [PD 184352]	74 ± 5%	5.98 ± 0.69 µM	Inactive	99 ± 2%	13.7 ± 0.93 µM	99 ± 2%	–	100 ± 7%	18 ± 1.17 µM	5.93 ± 4.08 µM	64%	Emax [3, 20]: 64%; IC50 [3, 21]: 0.84 µM; Emax [6, 18]: 97 ± 4%; IC50 [6, 19]: 13.2 µM
COC[C@H]1OC(=O)c2coc3c2[C@@]1(C)C1=C(C3=O)[C@@H]2CCC(=O)[C@@]2(C)C[C@H]1OC(C)=O [Wortmannin]	91 ± 8%	0.57 ± 0.17 µM	–	–	–	–	–	80 ± 3%	7 ± 4.33 µM	11.4 ± 4.79 µM	–	Emax ([4]; Homo sapiens, ME-180): 47 ± 11%; HCT116 3-Day Viability IC50 ([6]; Table S8, 3 days): Inactive
C[C@@H]1O[C@@H](O[C@@H]2C=C3CC[C@@H]4[C@H](CC[C@]5(C)[C@@H](c6ccc(=O)oc6)CC[C@]45O)[C@@]3(C)CC2)[C@H](O)[C@H](O)[C@H]1O [Proscillaridin A]	93 ± 3%	0.01 µM	Inactive	–	–	–	–	98 ± 2%	0.02 µM	0.02 µM	–	IC50 [3, 13]: 0.01 µM; Emax [3, 14]: 101%; Emax [3, 15]: 103 ± 3%; IC50 [3, 16]: 0.01 µM; Emax [3, 17]: 101%; IC50 ([3]; Homo sapiens, read-out: HIF-1α–NanoLuc primary IC50): 0.01 µM; Emax [6, 18]: 87 ± 20%; IC50 [6, 19]: 0.09 ± 0.03 µM
CC(=O)Oc1ccccc1C(=O)Nc1ncc([N+](=O)[O-])s1 [Nitazoxanide]	88 ± 1%	3 ± 0.34 µM	–	–	–	101 ± 14%	–	–	–	3 ± 0.34 µM	150%	IC50 [2, 24]: 9.39 ± 1.08 µM; IC50 [3, 22]: 17.3 ± 1.17 µM; IC50 [3, 25]: 9.44 µM
CCCS(=O)(=O)Nc1ccc(F)c(C(=O)c2c[nH]c3ncc(-c4ccc(Cl)cc4)cc23)c1F [Vemurafenib]	75 ± 11%	4.1 ± 0.7 µM	Inactive	66 ± 6%	13.6 ± 6.38 µM	66 ± 6%	–	92 ± 5%	14.3 ± 1.97 µM	16 ± 8.13 µM	–	Emax ([4]; Homo sapiens, ME-180): 27 ± 10%; Emax [6, 18]: 63 ± 4%; IC50 [6, 19]: 31.8 ± 9.41 µM
C[C@@H]1O[C@@H](O[C@H]2C[C@@H](O)[C@]3(CO)[C@H]4[C@H](O)C[C@]5(C)[C@@H](C6=CC(=O)OC6)CC[C@]5(O)[C@@H]4CC[C@]3(O)C2)[C@H](O)[C@H](O)[C@H]1O [Ouabain]	94 ± 4%	0.08 ± 0.01 µM	–	–	–	–	–	98 ± 4%	0.13 ± 0.01 µM	0.13 µM	–	Emax [6, 18]: 73 ± 13%; IC50 [6, 19]: 0.63 ± 0.37 µM
CCCCCCCCCCCCCC[N+](C)(C)C.[Br-] [MitMAB]	–	–	Inactive	–	–	–	–	–	–	–	–	HRE–bla confirmatory Efficacy ([1]; Table S7, confirmatory screen): 100 ± 5%; IC50 ([1]; Table S7, confirmatory screen, read-out: HRE–bla confirmatory IC50): 5.73 ± 1.88 µM; HIF-1α–NanoLuc confirmatory Efficacy ([3]; Table S7, confirmatory screen): 99 ± 9%; IC50 ([3]; Table S7, confirmatory screen, read-out: HIF-1α–NanoLuc confirmatory IC50): 15.2 ± 7.16 µM; HIF-1α–NanoLuc primary Efficacy ([3]; Table S7, primary screen): 129%; IC50 ([3]; Table S7, primary screen, read-out: HIF-1α–NanoLuc primary IC50): 2.11 µM; IC50 [4]: 18.2 ± 2.51 µM
C[C@@H]1C[C@@H]([C@H](O)CC2CC(=O)NC(=O)C2)C(=O)[C@@H](C)C1 [Cycloheximide]	92 ± 2%	1.06 ± 0.12 µM	Inactive	–	–	–	–	–	–	8.34 ± 4.61 µM	–	Effect on HIF-1α–NanoLuc level / luciferase activity, in words [3]: showed reduced protein turnover and decreased luciferase signal; IC50 [3, 13]: 0.24 µM; Emax [3, 14]: 92%; Emax [3, 15]: 104 ± 5%; IC50 [3, 16]: 0.53 µM; Emax [3, 17]: 92%
Cn1cnc([N+](=O)[O-])c1Sc1ncnc2nc[nH]c12 [Azathioprine]	–	–	–	–	–	50 ± 11%	Inactive	–	–	–	67%	HRE–bla confirmatory IC50 ([1]; Table S7, confirmatory screen): Inactive; IC50 [2, 24]: 2.11 ± 0.53 µM; IC50 [3, 22]: 8.07 ± 1.82 µM; IC50 [3, 25]: 3.42 µM
Cc1nc(Nc2ncc(C(=O)Nc3c(C)cccc3Cl)s2)cc(N2CCN(CCO)CC2)n1 [Dasatinib]	52 ± 11%	0.03 ± 0.02 µM	Inactive	46 ± 3%	23.6 ± 8.59 µM	46 ± 3%	Inactive	–	–	–	56%	Emax [3, 20]: 82%; IC50 [3, 21]: 0.94 µM; IC50 [3, 25]: 21.1 µM
CC(C)(C)c1nc(-c2cccc(NS(=O)(=O)c3c(F)cccc3F)c2F)c(-c2ccnc(N)n2)s1 [Dabrafenib]	43 ± 1%	6.4 ± 1.55 µM	Inactive	26 ± 13%	0.47 ± 0.24 µM	26 ± 13%	Inactive	–	–	–	–	–
